Where “and” joins values, the source holds several entries; their conditions need not be identical. Equal values may be shown once. Entries after “also recorded” stand apart in the source; their conditions may differ.
Assays:
Assay type in all cases: cell-based
[1] = test system: mitochondria or chloroplast of Chlamydomonas reinhardtii; experiment: Subcellular localization of Venus reporter by epifluorescence microscopy (manual targeting assignment); details: for chloroplast targeting when combining cTP-N with cTP-C (^cP^c) / targeting when combining cTP-N with mTP-C (^cP^m) / mitochondrial targeting upon addition of mTP-C (P^m): bare name = K and R versions; for mitochondrial targeting upon addition of mTP-C (P^m): C-terminal element of CAG2-mTP added to the named peptide, Figure 2 rows C and D
Procedure, shortened: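 Targeting peptide variants fused to Venus reporter, transformed into Chlamydomonas wild-type T222+ (CC-5101); three independent transformant lines per construct. Localization assigned manually from epifluorescence images using chlorophyll autofluorescence for chloroplast and 0.1 μM MitoTracker Red CMXRos (30 min) for mitochondria. Automated segmentation used for validation.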

[2] = test system: mitochondria or chloroplast of Chlamydomonas reinhardtii; experiment: Automated image segmentation / quantification of Venus signal (pyrenoid/chlorophyll, mitochondria/cell); details: for automated image quantification values: unmodified HA-RAMPs, Supplemental Figures 2E, 2F, 5A, 9A
From the text: A custom ImageJ Macro was written to enable automated image segmentation of epifluorescence micrographs in Fiji. In brief, in a given micrograph, fluorescence intensities were normalized, and individual cells were detected using marker-controlled watershed from the MorphoLibJ library ([Legland et al., 2016]). For each cell, auto-thresholding the chlorophyll channel using the Huang method was used to generate a chlorophyll mask. Separately, the chlorophyll channel was subjected to a series of morphological filters and Gaussian blurring followed by auto-thresholding to finally detect round holes between 0.1 and 5 μm within the ensuing binary image to be saved as a pyrenoid mask. In MitoTracker images, the MitoTracker channel was subjected to morphological filtering followed by auto-thresholding with Otsu to generate a mitochondrial mask. Venus channel intensities were recorded for each compartment. For each cell, rotated images containing binary masks as extra channels were saved. Data were compiled, analyzed, and plotted in R v.3.6.1 (https://www.r-project.org/) using RStudio 2022.07.2+576 (https://www.rstudio.com/).
Automated Image Analysis corroborates targeting
To assess subcellular Venus localisation independently of our manual targeting assignment, 2202 3-channel images containing Venus, chlorophyll and brightfield channels, and 557 4-channel images containing an additional MitoTracker channel, were subjected to automated, quantitative […]
image analysis (Fig. S2).
In the absence of Venus, low chlorophyll autofluorescence is visible in the Venus channel; in the absence of a presequence, Venus accumulates in the cytoplasm, targeting neither to the mitochondria nor to the chloroplast. When equipped with the chimeric B15Kc presequence, Venus […]
previously using confocal microscopy and biochemistry on isolated organelles (Garrido et al., When targeted to the chloroplast, Venus not only colocalizes with chlorophyll but also accumulates within the pyrenoid. The pyrenoid can be detected as a region of lower chlorophyll fluorescence at the base of the cup-shaped chloroplast, as visualized in Fig. S2B where the pyrenoid is labelled fluorescently using an RBCS-Venus fusion protein. Given that chlorophyll autofluorescence renders colocalization of Venus channel signal with the chlorophyll channel potentially misleading in constructs with low Venus accumulation, we chose to focus on evaluating Venus signal within the pyrenoid for automated image segmentation (Fig. S2C inset). Rather than comparing pyrenoidal Venus to the entire cell, we opted for a comparison with Venus in the rest of the chloroplast excluding the pyrenoid (the chlorophyll region), since strong Venus channel signal from within the pyrenoid should generate high values for a pyrenoid/chlorophyll ratio when Venus is in the chloroplast and low values when Venus is elsewhere. This approach was able to separate chloroplast-targeting constructs very effectively from constructs where Venus localized elsewhere in the cell (Fig. S2C). Only a small region of overlap between the two categories remains (highlighted in blue). Among constructs targeting elsewhere, constructs found in this overlap region typically show low Venus accumulation, e.g. the no-Venus control falls also falls in this region (black diamond). […]

[3] = test system: Escherichia coli strain BW25113; experiment: Minimum inhibitory concentration / antimicrobial activity growth assay; details: growth assay with dilutions of the AMP, Escherichia coli strain BW25113, Figure 3D

Substance	chloroplast targeting when combining cTP-N with cTP-C (^cP^c) ([1]; Figure 2)	targeting when combining cTP-N with mTP-C (^cP^m) ([1]; Figure 2)	automated image quantification values [2]	mitochondrial targeting upon addition of mTP-C (P^m) [1]	minimum inhibitory concentration after replacing all Ks with Rs, compared with the natively K-rich sequence [3]	other results
cecropin-P3 [CP3K, reference compound]	fail to target the chloroplast	chloroplast targeting	high image quantification values	–	–	–
ranatuerin-2G [R2GK, reference compound]	fail to target the chloroplast	–	high image quantification values	enabled partial mitochondrial targeting	–	–
FLPLLAGLAANFLPKIFCKITRKC [B1E, brevinin-1E, HA-RAMP antimicrobial peptide, reference compound]	–	dual targeting	–	–	increased	mitochondrial targeting upon sole addition of cTP-N (^cP) ([1]; 15 N-terminal residues of RCA1-cTP added, no C-terminal element, Figure 2): enabled mitochondrial targeting
GIGKFLHSAKKFGKAFVGEIMNS [MII, magainin 2, HA-RAMP antimicrobial peptide, reference compound]	–	–	–	continued targeting	increased	mitochondrial localization upon addition of cTP-C (P^c) ([1]; C-terminal element of RCA1-cTP added, Figure 2 rows E and F): compatible with mitochondrial localization; organelle targeting (Venus reporter localization) by the construct as labelled ([1]; peptide inserted upstream of Venus, stable Chlamydomonas lines, epifluorescence, MitoTracker / chlorophyll / pyrenoid co-localization, three independent insertion lines): only partial
ALWMTLLKKVLKAAAKAALNAVLVGANA [DS4, dermaseptin S4, HA-RAMP antimicrobial peptide]	failed to show any chloroplast targeting; also recorded: fail to target the chloroplast	–	–	–	increased	Targeting ([1]; manual assignment printed per cell line of Table S3, Fig.S 7 panel a, Nter sans, Cation K, Cter sans, pODC 82, colony 16, strain 2): none; Venus.ratio_pyr ([2]; Venus channel signal in the pyrenoid relative to the chlorophyll region, single-cell values, image 1, 3 channels, Cation K, no TP elements, strain 2): 0.9978 and 0.9365; Venus.ratio_pyr.norm ([2]; normalized so that construct averages range from 0 to 1, single-cell values, image 1, 3 channels, Cation K, no TP elements, strain 2): 0.09363; Venus.ratio_cp ([2]; single-cell values (Cell 0, 1, 10, 11, 12), image 1, 3 channels, Nter sans, Cation K, Cter sans, strain 2): 1.038 and 1.1 and 1.124 and 1.055 and 1.047
MGKIPVKAIKKAGAAIGKGLRAINIASTAHDVYSFFKPKHKKKSVRRAQLQVVASSRKQMGRWRSIDAGVDASDDQ [SIM.K.c]	–	–	–	–	–	Localisation ([1]; targeting of the Venus reporter fused to the peptide, expressed in Chlamydomonas reinhardtii, manual assignment from epifluorescence microscopy, full or partial): Neither

— publication PMC10363480 (Plant Communications, 2023)
